Reference: patent US20030211577A1, “Novel G protein-coupled receptor, GAVE7” (priority 2001, published 2003)

Test system: GAVE7 expression in THP-1 cells
Assay: Immune cell regulation: GAVE7 expression in PMA-differentiated THP-1 cells by Northern blot or TaqMan assay
Type: cell-based
Details: PMA differentiated THP-1 cells stimulated with LPS (10 μg/ml) for 4 hours and 24 hours, actin control
Method: THP-1 cells were obtainied from the American Type Culture Collection (Manassas, Va.) and maintained in RPMI culture medium (RPMI 1640, 100 IU/ml penicillin-streptomycin, 10% heat-inactivated fetal bovine serum) at 37° C. in a humidfied 95% air/5% CO2 tissue culture incubator. THP-1 cells were treated with 10 nM phorbol-12-myristate-13-acetate (PMA) and incubated overnight to differentiate the monocyte into an adhereent macrophage-type cell. The differentiated cells adhere, stop proliferating and express high levels of CD14. LPS activates macrophages and elicits an inflammatory response. The cells were washed once with the culture medium and grown for an additional 48 hours in the absence of PMA. The PMA differentiated cells were stimulted with or without LPS (10 μg/ml) for 4 hours and 24 hours.
The cells then were assayed for GAVE7 expression by Northern blot or TaqMan assay. Cell exposed to actin served as a control.

Lipopolysaccharide [LPS]
GAVE7 expression: down-regulated
